Source: patent US20110039779A1, “IGF-1R BINDING PROTEINS AND ANTAGONISTS” (priority 2007, published 2011)
Several values for one entry are separate records, joined by “and”; a condition that tells them apart may be missing. Equal values may be shown once. Read-outs that look alike come from different tables or passages of the source.

Key:
SW480 cells = type: cell-based
Description: For cell growth/density studies, a mitochondrial activity assay was used, as exemplified by the following. Cells (SW480, MCF-7S8) were propagated in complete medium (DME: F12, 10% FCS (SW 480) or 5% FCS (MCF-7S8, P/S)), trypsinized, and seeded in 96 well plates as 10,000 cells/well in medium with 0.5% FCS. All wells in the periphery were omitted and only filled with medium. […] All treatments are made in triplicates. […] Treatment was continued for 48 hours (SW480 cells) or 72 hours (MCF-7S8 cells) before quantification of the cell density. Media was exchanged each day. Media and peptides were diluted in DMSO. When measuring cell density, the volume of each well was adjusted to […] Pre-diluted WST-1 (1 ml+1.5 ml DME:F12) was added as 25 μL to each well including background samples. Three wells with media only served as background controls. The cells were incubated for 90 min protected against light in an incubator.

MCF7 cells = MCF7 cells (Homo sapiens, UniProt P08069); test: antagonism assay in starved MCF7 cells, luminescence viability, 72 hrs; type: cell-based; conditions: Table 9
Description: Additional binding and antagonism assays using candidate peptides were performed. […] Cell viability was determined by luminescence assay and IC50 was calculated using standard techniques.

purified HIGF-1R = molecular target: T1, purified HIGF-1R (Homo sapiens, UniProt P08069); test: IGF-1R activation kinase assay; type: biochemical; conditions: FIG. 2
T1 construct: HIGF-1R was purified from a cell culture of BHK cells stably transfected with IGF-1R cDNA; made in house; host or cells: BHK cells stably transfected with IGF-1R cDNA
Description: For determining IGF-1R activation with test peptides, a kinase assay, generally using the following conditions was employed. A solution of each test peptide in kinase buffer (Hepes 100 mM (pH 8.0), MgCl2 8 mM, MnCl2 6 mM, Triton X100 0.1% v/v, BSA 0.2% w/v, 4 μg/ml IRS-1 peptide (Biotin-[…] in PBS+1 mg/ml)) was prepared. Samples were mixed in a microtiter plate in triplicate. 50 μl 2× kinase buffer was added into each well. […] Volume was adjusted to 88 μL, before addition of purified HIGF-1R (2 μl/well). Plates were shaken and incubated for 50 min. at room temperature (RT). DTT and 10 μl/well ATP were added and the wells incubated for 10 min. before stopping the reaction by adding 10 μl stop-buffer (50 mM EDTA (pH 8.0))/well and shaking. The samples were then transferred to streptavidin coated plates and incubated for 1 hour at RT. The coated plates were aspirated and washed 3 times with TBS-T. […] P-tyr Ab-PO (Phosphotyrosine-RC20:HRPO (1:1000) in TBS-T) was added and each plate was incubated for 30 min at RT. The plates were aspirated and washed 3 times with TBS-T. 100 μl TMB-One-substrate (Kem-En-Tec Diagnostics A/S—Denmark) (preheated to RT) was then added and the plates further incubated for approximately 20 min at RT. This reaction was stopped by adding 10 μl H2SO4 and the plates were read in an ELISA-reader at […] within 5-10 min. thereafter. […]

MAPK44 = test: downstream signaling in L6 cells: MAPK44; type: cell-based; conditions: 3 nM IGF-1, read-out: MAPK44, IC50 for down regulation of the stimulation to the basal level
Description: (§1) The tyrosine phosphorylation of IRS signaling (the 180 kDa band on a tyrosine phosphor Western blot) as well as activation of effectors MAPK 44 and 42 and PKB were analyzed by using antibodies specific for their active forms using methods substantially similar to those described in Example 14 of the '246 PCT application.
(§2) The effect of select peptides on downstream signaling (MAPK44, MAPK42, PKB/Akt, IRS-1, and IGF-1R) was also measured by studying the signaling in L6 cells predominantly expressing IGF-1R and very limited insulin receptors. […] The antagonistic effect of the peptides can be seen to affect all the downstream signaling from the IGF-1R.

MAPK42 = test: downstream signaling in L6 cells: MAPK42; type: cell-based; conditions: 3 nM IGF-1, read-out: MAPK42, IC50 for down regulation of the stimulation to the basal level
Description: as §1, §2

IGF-IR = test: downstream signaling in L6 cells: IGF-IR; type: cell-based; conditions: 3 nM IGF-1, read-out: IGF-IR, IC50 for down regulation of the stimulation to the basal level
Description: as §1, §2

IRS-1 = test: downstream signaling: IRS-1 tyrosine phosphorylation; type: cell-based; conditions: L6 cells; 3 nM IGF-1; read-out: IRS-1, IC50 for down regulation of the stimulation to the basal level
Description: as §1, §2

[1] = first value of the cell: concentration needed to blunt the effect of 10 nM IGF-1, cells in words only = effect as reported, 48 hours
[2] = read-out: IC50 in SW480 (M) in presence of IGF-1/alone: alone, second value of the cell: concentration needed to inhibit basal level in 0.5% FCS
[3] = read-out: IC50 in SW480 (M) in presence of IGF-1/alone: in presence of IGF-1, first value of the cell: concentration needed to blunt the effect of 10 nM IGF-1, cells in words only = effect as reported, 48 hours

Sequence of MCF7 cells (P08069 31-736): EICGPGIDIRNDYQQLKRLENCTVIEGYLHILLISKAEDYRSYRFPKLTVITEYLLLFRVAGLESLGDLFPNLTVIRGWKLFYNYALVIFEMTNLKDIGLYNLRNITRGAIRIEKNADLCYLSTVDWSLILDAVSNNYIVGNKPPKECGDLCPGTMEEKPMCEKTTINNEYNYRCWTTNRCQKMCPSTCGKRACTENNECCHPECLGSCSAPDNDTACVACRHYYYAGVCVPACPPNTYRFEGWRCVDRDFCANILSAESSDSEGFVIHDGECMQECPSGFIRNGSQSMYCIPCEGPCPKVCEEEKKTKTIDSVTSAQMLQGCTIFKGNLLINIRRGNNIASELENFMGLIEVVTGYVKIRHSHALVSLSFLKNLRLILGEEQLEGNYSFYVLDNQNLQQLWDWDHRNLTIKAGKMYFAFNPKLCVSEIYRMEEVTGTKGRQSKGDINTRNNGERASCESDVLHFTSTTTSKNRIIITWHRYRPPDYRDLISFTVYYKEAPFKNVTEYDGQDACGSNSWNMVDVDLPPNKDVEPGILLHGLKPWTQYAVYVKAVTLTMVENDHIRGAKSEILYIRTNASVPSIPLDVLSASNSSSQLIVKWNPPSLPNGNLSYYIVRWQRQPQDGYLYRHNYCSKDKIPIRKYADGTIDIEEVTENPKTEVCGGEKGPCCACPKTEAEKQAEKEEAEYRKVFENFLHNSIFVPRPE
T1 sequence (P08069 31-736 limits assumed): as the sequence (P08069 31-736) above
T1 sequence (P08069 741-1367 limits assumed): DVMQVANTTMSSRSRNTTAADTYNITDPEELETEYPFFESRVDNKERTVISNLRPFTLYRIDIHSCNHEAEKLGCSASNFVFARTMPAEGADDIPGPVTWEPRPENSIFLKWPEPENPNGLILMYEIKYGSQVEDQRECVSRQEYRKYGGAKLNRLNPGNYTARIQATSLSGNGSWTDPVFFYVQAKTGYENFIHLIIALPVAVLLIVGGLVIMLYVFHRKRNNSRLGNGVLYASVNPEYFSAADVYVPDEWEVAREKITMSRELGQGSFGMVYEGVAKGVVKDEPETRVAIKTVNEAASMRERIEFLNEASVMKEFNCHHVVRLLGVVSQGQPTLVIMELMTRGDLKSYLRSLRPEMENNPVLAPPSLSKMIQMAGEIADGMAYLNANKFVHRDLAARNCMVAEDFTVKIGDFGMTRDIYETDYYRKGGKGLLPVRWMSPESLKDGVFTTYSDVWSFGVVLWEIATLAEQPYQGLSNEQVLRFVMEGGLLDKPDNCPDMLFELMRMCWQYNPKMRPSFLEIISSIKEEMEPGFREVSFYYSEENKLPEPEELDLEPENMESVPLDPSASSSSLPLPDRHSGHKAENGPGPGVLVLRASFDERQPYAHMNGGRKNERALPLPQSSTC

**Q.** For “FFYRCLSRLLGGOLGSRLGLSCIGD [Peptide F139]”, which “IC50 in SW480 (M) in presence of IGF-1/alone: in presence of IGF-1” value (shortened to “IC50 in SW480 (M) in presence”) (SW480 cells; [1]) is on record?
**A.** Antagonistic

**Q.** For “GIISQSCPESFYDWFAGQVSDPWWCW-Lig [Peptide F116]”, which “IC50 in SW480 (M) in presence” value (SW480 cells; [1]) is on record?
**A.** No effect

**Q.** With GSLDESFYDWFERQLGKK-Lig [Peptide F118] as the substance, how does the “IC50 in SW480 (M) in presence” value (SW480 cells; [1]) read?
**A.** No effect

**Q.** Which “IC50 in SW480 (M) in presence” value (SW480 cells; [1]) does the source give for “GSLDESFYRWFERQLEGGSGGSGLEQERAGTWCENSGRGCLH [Peptide F156]” here?
**A.** No effect

**Q.** GVRAMSFYDALVSVLGLGPSG [Peptide F157] was tested. Which “IC50 in SW480 (M) in presence” value (SW480 cells; [1]) did it give?
**A.** No effect

**Q.** With “NFYGCLLDLSLGVPSFGWRRRCITA [Peptide F408]” as the substance, how does the Activity (MCF7 cells) read?
**A.** Antagonist

**Q.** How did the IC50 (SW480 cells; read-out: IC50, inhibition of IGF-1 (10 nM)-induced proliferation of SW480 cells, experiment 13262-027) turn out when “QFYGCLLDLSLGVPSPGWRRRCITA [Peptide F393]” was run?
**A.** 1e-06 M

**Q.** What about the IC50 (SW480 cells; read-out: IC50, inhibition of IGF-1 (10 nM)-induced proliferation of SW480 cells, experiment 13262-029) of the same substance?
**A.** 1e-06 M

**Q.** Which results are given for “RQWDCRGRPCGDAESFYEWFDQQRS [Peptide F264]”?
**A.** IC50 (SW480 cells; [2]): > 1e-05 M; IC50 (SW480 cells; [3]): > 1e-05 M

**Q.** “SAAQLFFQESFYDWFLRQVAESSQPN [Peptide F162]” was tested. Which “IC50 in SW480 (M) in presence” value (SW480 cells; [1]) did it give?
**A.** No effect

**Q.** With “SACQFDCHENFYDWFAROVSGOAAYG [Peptide F161]” as the substance, how does the “IC50 in SW480 (M) in presence” value (SW480 cells; [1]) read?
**A.** No effect

**Q.** How did the Activity (MCF7 cells) turn out when “SFYDCLLDLSIGGPSSDWRRRCITA [Peptide F441]” was run?
**A.** Antagonist

**Q.** Which results are given for “SFYSCLESLVAGPAEKSRGQWEGCRK [Peptide F259]”?
**A.** inhibition of IGF-1R kinase activation by IGF-1 (purified HIGF-1R): completely inhibit; IC50 (SW480 cells; [3]): 2e-06 M

**Q.** What does the source list for “SFYSCLESLVKRPTERSRGQWVGCR [Peptide F320]”?
**A.** IC50 in SW480 (M) in presence of IGF-1/alone: in presence of IGF-1 (SW480 cells; [1]): No effect; IC50 (MAPK44): 1000 nM; IC50 (MAPK42): 1000 nM; IC50 (IGF-IR): 2000 nM and > 1000 nM; IC50 (IRS-1): > 2000 nM

**Q.** For “SFYSCLESLVNGGAERSEGOWEGCR [Peptide F113]”, which IC50 (SW480 cells; read-out: IC50, inhibition of IGF-1 (10 nM)-induced proliferation of SW480 cells, experiment 13262-015) is on record?
**A.** > 1e-05 M

**Q.** And the IC50 (SW480 cells; read-out: IC50, inhibition of IGF-1 (10 nM)-induced proliferation of SW480 cells, experiment 13262-016)?
**A.** > 1e-05 M

**Q.** Which IC50 (SW480 cells; [2]) does the source give for “SFYSCLESLVNGPAEKSRGQWDGCR [Peptide F249]” here?
**A.** > 1e-05 M

**Q.** What about the IC50 (SW480 cells; [3]) of the same substance?
**A.** > 1e-05 M

**Q.** How did the IC50 (SW480 cells; [2]) turn out when “SFYSCLESLVTGPAEKSRGQWEGCRK [Peptide F292]” was run?
**A.** 1e-06 M

**Q.** What about the IC50 (SW480 cells; [3]) of the same substance?
**A.** 1e-07 M

**Q.** How did the “IC50 in SW480 (M) in presence” value (SW480 cells; [1]) turn out when “SFYSCLGSLLTGAPQPIRGAWDRCR [Peptide F144]” was run?
**A.** No effect

**Q.** Which “IC50 in SW480 (M) in presence” value (SW480 cells; [1]) does the source give for VEGRGLFYDLLRQLLARRQNG [Peptide F158] here?
**A.** No effect

**Q.** With “VQDDCRGRPCGDADSFYEWFDQQAS [Peptide F263]” as the substance, how does the IC50 (SW480 cells; [2]) read?
**A.** > 1e-06 M

**Q.** What about the IC50 (SW480 cells; [3]) of the same substance?
**A.** > 1e-06 M
